Assay results published in patent US20230077362A1 (CORTEVA AGRISCIENCE LLC, priority 2019, published 2023).
Like-named read-outs stand apart in the source and are kept apart here.

Legend:
[1] = test system: Beet Armyworm (Spodoptera exigua) ("BAW"), second instar larvae; experiment: Bioassay on beet armyworm (BAW), 128-well diet tray assay; type: in vivo; conditions: for BAW rating: C = not tested, D = no activity noticed; for pest or weed control at 50 µg/cm2: Spodoptera exigua
Outline: (§1)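 Read-out: percent larval mortality per well, averaged over 8 wells. Incubation 25° C., 14:10 L:D photoperiod, 5–7 days, trays sealed with clear adhesive cover.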

[2] = test system: Cabbage Looper (Trichoplusia ni) ("CL"), second instar larvae; experiment: Bioassay on cabbage looper (CL), 128-well diet tray assay; type: in vivo; conditions: for CL rating: C = not tested, D = no activity noticed
Outline: as §1

[3] = read-out: BAW (Biological Results, rating)
[4] = Trichoplusia ni, read-out: CL (Biological Results, rating)
[5] = Trichoplusia ni, read-out: CL rating

SMILES	pest or weed control at 50 µg/cm2 [1, 3] [%]	pest or weed control at 50 µg/cm2 [2, 4] [%]	pest or weed control at 50 µg/cm2 ([1]; read-out: BAW rating) [%]	pest or weed control at 50 µg/cm2 [2, 5] [%]	other results
Cc1cc(COCC(F)(F)F)c(N2C(=O)CS/C2=N\C(=O)Nc2ccc(-c3ncn(-c4cccc(OC(F)(F)F)c4)n3)cc2F)cc1C [Compound J738]					BAW rating ([1]; Table ABC, species BAW): A (50-100); CL rating ([2]; Table ABC, species CL): A (50-100)
COCc1ccc(C)cc1N1C(=O)CS/C1=N\C(=O)Nc1ccc(-c2ncn(-c3ccc(OC(F)(F)F)cc3)n2)cc1C [Compound J67, (Z)-1-(3-(2-(Methoxymethyl)-5-methylphenyl)-4-oxothiazolidin-2-ylidene)-3-(2-methyl-4-(1-(4-(trifluoromethoxy)phenyl)-1H-1,2,4-triazol-3-yl)phenyl)urea]	50 to 100	50 to 100			
COC(C)c1ccc(C)cc1N1C(=O)CS/C1=N\C(=O)Nc1ccc(-c2nc(-c3ccc(OC(F)(F)F)cc3)no2)cc1F (stereo not shown) [Compound J434, (Z)-1-(2-Fluoro-4-(3-(4-(trifluoromethoxy)phenyl)-1,2,4-oxadiazol-5-yl)phenyl)-3-(3-(2-(1-methoxyethyl)-5-methylphenyl)-4-oxothiazolidin-2-ylidene)urea]			50 to 100	50 to 100	
Cc1ccc(-n2cnc(-c3ccc(NC(=O)/N=C4\SCC(=O)N4c4cc(N(C)C)ccc4C(C)C)c(F)c3)n2)cc1 [Compound J150, (Z)-1-(3-(5-(Dimethylamino)-2-isopropylphenyl)-4-oxothiazolidin-2-ylidene)-3-(2-fluoro-4-(1-(p-tolyl)-1H-1,2,4-triazol-3-yl)phenyl)urea]	50 to 100	50 to 100			
CC(C)c1ccc(N(C)C)cc1N1C(=O)CS/C1=N\C(=O)Nc1ccc(-c2ncn(-c3ccc([S+]([O-])C(F)(F)F)cc3)n2)cc1F (stereo not shown) [Compound J379, (Z)-1-(3-(5-(Dimethylamino)-2-isopropylphenyl)-4-oxothiazolidin-2-ylidene)-3-(2-fluoro-4-(1-(4-((trifluoromethyl)sulfinyl)phenyl)-1H-1,2,4-triazol-3-yl)phenyl)urea]			50 to 100	50 to 100	
Cc1ccc(COCC(F)(F)F)c(N2C(=O)CS/C2=N\C(=O)Nc2ccc(-c3ncn(-c4ccc(OC(F)(F)C(F)(F)F)cc4)n3)cc2F)c1 [Compound J662]					BAW rating ([1]; Table ABC, species BAW): A (50-100); CL rating ([2]; Table ABC, species CL): A (50-100)
Cc1ccc(Cc2cccnc2)c(N2C(=O)CS/C2=N\C(=O)Nc2ccc(-c3ncn(-c4ccc(C(F)(F)F)cc4)n3)cc2F)c1 [Compound J758, (Z)-1-(2-Fluoro-4-(1-(4-(trifluoromethyl)phenyl)-1H-1,2,4-triazol-3-yl)phenyl)-3-(3-(5-methyl-2-(pyridin-3-ylmethyl)phenyl)-4-oxothiazolidin-2-ylidene)urea]			50 to 100	50 to 100	
COc1ccc(C(C)C)c(N2C(=O)CS/C2=N\C(=O)Nc2ccc(-c3ncn(-c4ccc(OC(F)(F)F)cn4)n3)cc2C)c1 [Compound J252, (Z)-1-(3-(2-Isopropyl-5-methoxyphenyl)-4-oxothiazolidin-2-ylidene)-3-(2-methyl-4-(1-(5-(trifluoromethoxy)pyridin-2-yl)-1H-1,2,4-triazol-3-yl)phenyl)urea]	50 to 100	50 to 100			
CC(C)c1ccc(N(C)C)cc1N1C(=O)CS/C1=N\C(=O)Nc1ccc(-n2cnc(-c3ccc(OC(F)(F)F)cc3)n2)cc1 [Compound J408, (Z)-1-(3-(5-(Dimethylamino)-2-isopropylphenyl)-4-oxothiazolidin-2-ylidene)-3-(4-(3-(4-(trifluoromethoxy)phenyl)-1H-1,2,4-triazol-1-yl)phenyl)urea]			50 to 100	50 to 100	
Cc1ccc(C(C)C)c(N2C(=O)CS/C2=N\C(=O)Nc2ccc(-c3ncn(-c4ccc(OC(F)(F)C(F)(F)F)cc4)n3)cc2C)c1 [Compound J24, (Z)-1-(3-(2-Isopropyl-5-methylphenyl)-4-oxothiazolidin-2-ylidene)-3-(2-methyl-4-(1-(4-(perfluoroethoxy)phenyl)-1H-1,2,4-triazol-3-yl)phenyl)urea]	50 to 100	50 to 100			
CCNc1ccc(C(C)C)c(N2C(=O)CS/C2=N\C(=O)Nc2ccc(-c3ncn(-c4ccc(OC(F)(F)F)cc4)n3)cc2CC)c1 [Compound J158, (Z)-1-(2-Ethyl-4-(1-(4-(trifluoromethoxy)phenyl)-1H-1,2,4-triazol-3-yl)phenyl)-3-(3-(5-(ethylamino)-2-isopropylphenyl)-4-oxothiazolidin-2-ylidene)urea]	50 to 100	50 to 100			
Cc1ccc(COCC(F)(F)F)c(N2C(=O)CS/C2=N\C(=O)Nc2ccc(-c3ncn(-c4ccc(OCC#N)cc4)n3)cc2C)c1 [Compound J359, (Z)-1-(4-(1-(4-(Cyanomethoxy)phenyl)-1H-1,2,4-triazol-3-yl)-2-methylphenyl)-3-(3-(5-methyl-2-((2,2,2-trifluoroethoxy)methyl)phenyl)-4-oxothiazolidin-2-ylidene)urea]			50 to 100	50 to 100	
Cc1ccc(C(C)C)c(N2C(=O)CS/C2=N\C(=O)Nc2ccc(-c3ncn(-c4cccc(C(F)(F)F)c4)n3)cc2)c1 [Compound J323, (Z)-1-(3-(2-isopropyl-5-methylphenyl)-4-oxothiazolidin-2-ylidene)-3-(4-(1-(3-(trifluoromethyl)phenyl)-1H-1,2,4-triazol-3-yl)phenyl)urea]	50 to 100	50 to 100			
Cc1cc(C)c(C)c(N2C(=O)CS/C2=N\C(=O)Nc2ccc(-c3ncn(-c4ccc(OC(F)(F)F)cc4)n3)cc2F)c1 [Compound J797, (Z)-1-(2-Fluoro-4-(1-(4-(trifluoromethoxy)phenyl)-1H-1,2,4-triazol-3-yl)phenyl)-3-(4-oxo-3-(2,3,5-trimethylphenyl)thiazolidin-2-ylidene)urea]					BAW rating (% control or mortality class) ([1]; Table ABC, species BAW, 128-well diet tray assay, second instar larvae): A (50-100); mortality at 50 µg/cm2 ([2]; Trichoplusia ni, Table ABC, species CL, 128-well diet tray assay, second instar larvae, read-out: CL rating (% control or mortality class)): 50 to 100%
CCCc1ccc(N(C)C)cc1N1C(=O)CS/C1=N\C(=O)Nc1ccc(-c2ncn(-c3ccc([S+]([O-])C(F)(F)F)cc3)n2)cc1F (stereo not shown) [Compound J383, (Z)-1-(3-(5-(Dimethylamino)-2-propylphenyl)-4-oxothiazolidin-2-ylidene)-3-(2-fluoro-4-(1-(4-((trifluoromethyl)sulfinyl)phenyl)-1H-1,2,4-triazol-3-yl)phenyl)urea]			50 to 100	50 to 100	
COC(C)c1ccc(C)cc1N1C(=O)CS/C1=N\C(=O)Nc1ccc(-c2ccn(-c3ccc(C(F)(F)F)nn3)n2)cc1F (stereo not shown) [Compound J381]					BAW rating ([1]; Table ABC, species BAW): A (50-100); CL rating ([2]; Table ABC, species CL): A (50-100)
Cc1ccc(COCC(F)(F)F)c(N2C(=O)CS/C2=N\C(=O)Nc2ccc(-c3ncn(-c4ccc(C(F)(F)F)cn4)n3)cc2F)c1 [Compound J281, (Z)-1-(2-Fluoro-4-(1-(5-(trifluoromethyl)pyridin-2-yl)-1H-1,2,4-triazol-3-yl)phenyl)-3-(3-(5-methyl-2-((2,2,2-trifluoroethoxy)methyl)phenyl)-4-oxothiazolidin-2-ylidene)urea]	50 to 100	50 to 100			
